According to the NIST ThermoML archive (doi:10.1021/acs.jced.7b00201):
± gives the expanded uncertainty stated by the source.

Experiment: xn = mol fraction of the nth substance listed
Conditions: 100 kPa, Liquid; for viscosity: Falling or rolling sphere viscometry; for mass density: Vibrating tube method

OCC1CC1 [cyclopropylmethanol] + CCCCCCCCCCCC
viscosity (293.15 K, x1 = 0.1039): 1.484 ± 0.032 mPa·s | viscosity (293.15 K, x1 = 0.2032): 1.521 ± 0.032 mPa·s | viscosity (293.15 K, x1 = 0.3022): 1.605 ± 0.034 mPa·s | viscosity (293.15 K, x1 = 0.3997): 1.683 ± 0.036 mPa·s | viscosity (293.15 K, x1 = 0.4993): 1.884 ± 0.04 mPa·s | viscosity (293.15 K, x1 = 0.5994): 2.084 ± 0.044 mPa·s | viscosity (293.15 K, x1 = 0.7): 2.335 ± 0.05 mPa·s | viscosity (293.15 K, x1 = 0.797): 2.671 ± 0.057 mPa·s | viscosity (293.15 K, x1 = 0.9004): 3.205 ± 0.069 mPa·s | viscosity (293.15 K, x1 = 1): 4.029 ± 0.086 mPa·s | mass density (293.15 K, x1 = 0.1135): 754.8 ± 1 kg/m3 | mass density (293.15 K, x1 = 0.2127): 761.38 ± 1 kg/m3 | mass density (293.15 K, x1 = 0.3059): 768.71 ± 1 kg/m3 | mass density (293.15 K, x1 = 0.3804): 775.49 ± 1 kg/m3 | mass density (293.15 K, x1 = 0.5067): 789.46 ± 1 kg/m3 | mass density (293.15 K, x1 = 0.6019): 802.62 ± 1 kg/m3 | mass density (293.15 K, x1 = 0.7011): 819.64 ± 1 kg/m3 | mass density (293.15 K, x1 = 0.7921): 839.53 ± 1 kg/m3 | mass density (293.15 K, x1 = 0.8991): 870.68 ± 1 kg/m3 | mass density (293.15 K, x1 = 1): 912.99 ± 1 kg/m3 | viscosity (298.15 K, x1 = 0.1039): 1.354 ± 0.029 mPa·s | viscosity (298.15 K, x1 = 0.2032): 1.382 ± 0.029 mPa·s | viscosity (298.15 K, x1 = 0.3022): 1.455 ± 0.031 mPa·s | viscosity (298.15 K, x1 = 0.3997): 1.52 ± 0.032 mPa·s | viscosity (298.15 K, x1 = 0.4993): 1.688 ± 0.036 mPa·s | viscosity (298.15 K, x1 = 0.5994): 1.854 ± 0.04 mPa·s | viscosity (298.15 K, x1 = 0.7): 2.068 ± 0.044 mPa·s | viscosity (298.15 K, x1 = 0.797): 2.35 ± 0.05 mPa·s | viscosity (298.15 K, x1 = 0.9004): 2.801 ± 0.06 mPa·s | viscosity (298.15 K, x1 = 1): 3.485 ± 0.075 mPa·s | mass density (298.15 K, x1 = 0.1135): 751.08 ± 1 kg/m3 | mass density (298.15 K, x1 = 0.2127): 757.63 ± 1 kg/m3 | mass density (298.15 K, x1 = 0.3059): 764.92 ± 1 kg/m3 | mass density (298.15 K, x1 = 0.3804): 771.68 ± 1 kg/m3 | mass density (298.15 K, x1 = 0.5067): 785.59 ± 1 kg/m3 | mass density (298.15 K, x1 = 0.6019): 798.72 ± 1 kg/m3 | mass density (298.15 K, x1 = 0.7011): 815.7 ± 1 kg/m3 | mass density (298.15 K, x1 = 0.7921): 835.57 ± 1 kg/m3 | mass density (298.15 K, x1 = 0.8991): 866.69 ± 1 kg/m3 | mass density (298.15 K, x1 = 1): 908.94 ± 1 kg/m3 | viscosity (303.15 K, x1 = 0.1039): 1.241 ± 0.026 mPa·s | viscosity (303.15 K, x1 = 0.2032): 1.276 ± 0.027 mPa·s | viscosity (303.15 K, x1 = 0.3022): 1.325 ± 0.028 mPa·s | viscosity (303.15 K, x1 = 0.3997): 1.38 ± 0.029 mPa·s | viscosity (303.15 K, x1 = 0.4993): 1.521 ± 0.032 mPa·s | viscosity (303.15 K, x1 = 0.5994): 1.662 ± 0.035 mPa·s | viscosity (303.15 K, x1 = 0.7): 1.842 ± 0.039 mPa·s | viscosity (303.15 K, x1 = 0.797): 2.081 ± 0.045 mPa·s | viscosity (303.15 K, x1 = 0.9004): 2.463 ± 0.053 mPa·s | viscosity (303.15 K, x1 = 1): 3.037 ± 0.065 mPa·s | mass density (303.15 K, x1 = 0.1135): 747.35 ± 1 kg/m3 | mass density (303.15 K, x1 = 0.2127): 753.86 ± 1 kg/m3 | mass density (303.15 K, x1 = 0.3059): 761.1 ± 1 kg/m3 | mass density (303.15 K, x1 = 0.3804): 767.83 ± 1 kg/m3 | mass density (303.15 K, x1 = 0.5067): 781.69 ± 1 kg/m3 | mass density (303.15 K, x1 = 0.6019): 794.79 ± 1 kg/m3 | mass density (303.15 K, x1 = 0.7011): 811.73 ± 1 kg/m3 | mass density (303.15 K, x1 = 0.7921): 831.56 ± 1 kg/m3 | mass density (303.15 K, x1 = 0.8991): 862.66 ± 1 kg/m3 | mass density (303.15 K, x1 = 1): 904.85 ± 1 kg/m3 | viscosity (308.15 K, x1 = 0.1039): 1.142 ± 0.024 mPa·s | viscosity (308.15 K, x1 = 0.2032): 1.171 ± 0.025 mPa·s | viscosity (308.15 K, x1 = 0.3022): 1.213 ± 0.026 mPa·s | viscosity (308.15 K, x1 = 0.3997): 1.258 ± 0.027 mPa·s | viscosity (308.15 K, x1 = 0.4993): 1.378 ± 0.029 mPa·s | viscosity (308.15 K, x1 = 0.5994): 1.497 ± 0.032 mPa·s | viscosity (308.15 K, x1 = 0.7): 1.65 ± 0.035 mPa·s | viscosity (308.15 K, x1 = 0.797): 1.853 ± 0.04 mPa·s | viscosity (308.15 K, x1 = 0.9004): 2.176 ± 0.047 mPa·s | viscosity (308.15 K, x1 = 1): 2.661 ± 0.057 mPa·s | mass density (308.15 K, x1 = 0.1135): 743.6 ± 1 kg/m3 | mass density (308.15 K, x1 = 0.2127): 750.06 ± 1 kg/m3 | mass density (308.15 K, x1 = 0.3059): 757.26 ± 1 kg/m3 | mass density (308.15 K, x1 = 0.3804): 763.96 ± 1 kg/m3 | mass density (308.15 K, x1 = 0.5067): 777.76 ± 1 kg/m3 | mass density (308.15 K, x1 = 0.6019): 790.82 ± 1 kg/m3 | mass density (308.15 K, x1 = 0.7011): 807.72 ± 1 kg/m3 | mass density (308.15 K, x1 = 0.7921): 827.52 ± 1 kg/m3 | mass density (308.15 K, x1 = 0.8991): 858.59 ± 1 kg/m3 | mass density (308.15 K, x1 = 1): 900.74 ± 1 kg/m3 | viscosity (313.15 K, x1 = 0.1039): 1.055 ± 0.022 mPa·s | viscosity (313.15 K, x1 = 0.2032): 1.079 ± 0.023 mPa·s | viscosity (313.15 K, x1 = 0.3022): 1.114 ± 0.024 mPa·s | viscosity (313.15 K, x1 = 0.3997): 1.153 ± 0.025 mPa·s | viscosity (313.15 K, x1 = 0.4993): 1.254 ± 0.027 mPa·s | viscosity (313.15 K, x1 = 0.5994): 1.355 ± 0.029 mPa·s | viscosity (313.15 K, x1 = 0.7): 1.485 ± 0.032 mPa·s | viscosity (313.15 K, x1 = 0.797): 1.658 ± 0.035 mPa·s | viscosity (313.15 K, x1 = 0.9004): 1.933 ± 0.041 mPa·s | viscosity (313.15 K, x1 = 1): 2.344 ± 0.05 mPa·s | mass density (313.15 K, x1 = 0.1135): 739.84 ± 1 kg/m3 | mass density (313.15 K, x1 = 0.2127): 746.24 ± 1 kg/m3 | mass density (313.15 K, x1 = 0.3059): 753.4 ± 1 kg/m3 | mass density (313.15 K, x1 = 0.3804): 760.06 ± 1 kg/m3 | mass density (313.15 K, x1 = 0.5067): 773.81 ± 1 kg/m3 | mass density (313.15 K, x1 = 0.6019): 786.82 ± 1 kg/m3 | mass density (313.15 K, x1 = 0.7011): 803.68 ± 1 kg/m3 | mass density (313.15 K, x1 = 0.7921): 823.45 ± 1 kg/m3 | mass density (313.15 K, x1 = 0.8991): 854.48 ± 1 kg/m3 | mass density (313.15 K, x1 = 1): 896.58 ± 1 kg/m3 | viscosity (318.15 K, x1 = 0.1039): 0.977 ± 0.021 mPa·s | viscosity (318.15 K, x1 = 0.2032): 0.998 ± 0.021 mPa·s | viscosity (318.15 K, x1 = 0.3022): 1.028 ± 0.022 mPa·s | viscosity (318.15 K, x1 = 0.3997): 1.06 ± 0.023 mPa·s | viscosity (318.15 K, x1 = 0.4993): 1.146 ± 0.024 mPa·s | viscosity (318.15 K, x1 = 0.5994): 1.232 ± 0.026 mPa·s | viscosity (318.15 K, x1 = 0.7): 1.343 ± 0.029 mPa·s | viscosity (318.15 K, x1 = 0.797): 1.491 ± 0.032 mPa·s | viscosity (318.15 K, x1 = 0.9004): 1.725 ± 0.037 mPa·s | viscosity (318.15 K, x1 = 1): 2.074 ± 0.044 mPa·s
